Measured values published in US6846913B1, “Crude extract from Viscum album coloratum, and proteins and lectins isolated therefrom” (Mistle Biotech Co., Ltd., priority 1999, dated 2005).

These compounds were tested on hemagglutination of KML-IIU and KML-IIL. Details: sugars stepwise diluted from 100 mM.
Design: species or system Korean mistletoe

In order of rising “Minimal Conc. (mM) necessary to inhibit the hemagglutination” value:
1. OC[C@H]1O[C@@H](O[C@H]2[C@H](O)[C@@H](O)C(O)O[C@@H]2CO)[C@H](O)[C@@H](O)[C@H]1O (stereo partly shown) [Lactose]  3 mM
2. CC(=O)N[C@H]1C(O)O[C@H](CO)[C@H](O)[C@@H]1O (stereo partly shown) [N-Acetylgalactosamine]  3 mM
3. O=C[C@H](O)[C@@H](O)[C@@H](O)[C@H](O)CO [Galactose]  6 mM

CC(=O)N[C@H]1C(O)O[C@H](CO)[C@@H](O)[C@@H]1O (stereo partly shown) [N-Acetylglucosamine] was tested, and the “Minimal Conc. (mM) necessary to inhibit the hemagglutination” value was over 100 mM.
